The values that follow come from patent US20200390783A1, “INHIBITORS OF EGFR AND METHODS OF USE THEREOF” (DANA-FARBER CANCER INSTITUTE, INC., priority 2018, published 2020).

The experiment addresses EGFR T790M/L858R Ba/F3 cell line (Homo sapiens, UniProt P00533, T790M/L858R, cells depend on it). As to the kind of experiment: Ba/F3 cell proliferation model (MTS assay). The format is cell-based, murine. Here is the method: The EGFR mutant L858R, Del E746_A750, L858R/T790M, DeE746_A750/T790M, L858R/T790M/C797S and Del/T790M/C797S Ba/F3 cells were previously described (Zhou et al., Nature 462, (2009), 1070-1074). All cell lines were maintained in RPMI 1640 (Cellgro; Mediatech Inc., Herndon, Calif.) supplemented with 10% FBS 100 units/mL penicillin, 100 units/mL streptomycin, and 2 mM glutamine. L858R cells were maintained in ACL-4 media (Invitrogen, Carlsbad, Calif.) supplemented with 5% FBS, 100 units/mL penicillin, 100 units/mL streptomycin, and 2 mM glutamine. The EGFR I941R mutation was introduced via site directed mutagenesis using the Quick Change Site-Directed Mutagenesis kit (Stratagene; La Jolla, Calif.) according to the manufacturer's instructions. All constructs were confirmed by DNA sequencing. The constructs were shuttled into the retroviral vector JP1540 using the BD Creator™ System (BD Biosciences). Ba/F3 cells were infected with retrovirus and according to standard protocols, as described previously (Zhou 2009). Stable clones were obtained by selection in puromycin (2 μg/ml).
Growth and inhibition of growth was assessed by MTS assay and was performed according to previously established methods (Zhou 2009). The MTS assay is a colorimetric method for determining the number of viable cells that is based on the bioreduction of MTS by cells to a formazan product that is soluble in cell culture medium and can be detected spectrophotometrically. […] All experimental points were set up in six wells and all experiments were repeated at least three times. […] The curves were fitted using a non-linear regression model with a sigmoidal dose response.
On the technique in general: Tetrazolium dyes change colour on reduction, which living cells bring about.

The mark [1] stands for this setting: absence of cetuximab, read-out: Ba/F3 cellular activity (EC50) T790M/L858R.
Setting [2] is: read-out: Ba/F3 cellular activity (EC50) T790M/L858R + Cetuximab, presence of 1 μg/mL cetuximab.

The structures appear in SMILES notation. Like-named read-outs stand apart in the source and are kept apart here.

Chain of EGFR T790M/L858R Ba/F3 cell line (P00533 whole entry T790M/L858R): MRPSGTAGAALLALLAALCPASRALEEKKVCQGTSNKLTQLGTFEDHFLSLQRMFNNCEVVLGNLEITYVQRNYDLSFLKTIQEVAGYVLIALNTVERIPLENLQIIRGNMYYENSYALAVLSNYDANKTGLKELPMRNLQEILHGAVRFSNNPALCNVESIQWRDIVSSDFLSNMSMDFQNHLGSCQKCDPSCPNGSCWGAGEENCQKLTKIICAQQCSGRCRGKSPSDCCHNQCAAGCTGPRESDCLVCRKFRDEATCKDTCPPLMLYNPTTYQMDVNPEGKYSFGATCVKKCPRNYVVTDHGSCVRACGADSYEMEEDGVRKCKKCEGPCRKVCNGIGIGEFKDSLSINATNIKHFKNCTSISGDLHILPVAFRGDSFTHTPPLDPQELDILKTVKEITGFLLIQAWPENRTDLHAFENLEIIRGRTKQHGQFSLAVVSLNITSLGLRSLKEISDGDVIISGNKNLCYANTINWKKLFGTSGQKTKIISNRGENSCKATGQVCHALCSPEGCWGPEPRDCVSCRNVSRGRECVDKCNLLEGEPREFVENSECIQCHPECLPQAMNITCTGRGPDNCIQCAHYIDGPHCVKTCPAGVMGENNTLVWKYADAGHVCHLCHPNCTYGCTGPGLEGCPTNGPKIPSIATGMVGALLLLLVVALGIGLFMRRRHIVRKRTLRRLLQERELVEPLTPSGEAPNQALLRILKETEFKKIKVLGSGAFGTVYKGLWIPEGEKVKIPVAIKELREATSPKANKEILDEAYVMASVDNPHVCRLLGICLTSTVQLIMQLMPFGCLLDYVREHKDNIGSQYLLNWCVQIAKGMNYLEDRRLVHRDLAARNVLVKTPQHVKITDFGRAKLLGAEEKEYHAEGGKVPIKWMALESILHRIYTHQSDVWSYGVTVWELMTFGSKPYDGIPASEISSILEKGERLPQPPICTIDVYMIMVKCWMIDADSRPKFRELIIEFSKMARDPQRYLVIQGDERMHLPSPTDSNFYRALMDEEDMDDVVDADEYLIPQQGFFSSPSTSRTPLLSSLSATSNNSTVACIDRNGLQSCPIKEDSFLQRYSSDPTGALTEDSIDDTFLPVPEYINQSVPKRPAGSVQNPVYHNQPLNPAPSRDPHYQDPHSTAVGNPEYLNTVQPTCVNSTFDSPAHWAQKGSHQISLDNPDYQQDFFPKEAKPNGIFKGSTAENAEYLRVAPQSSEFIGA

Regarding `C=CC(=O)Nc1ccc2c(c1)N(Cc1ccccc1)C(=O)c1cc(-c3ccc4[nH]ccc4c3)ccc1N2` [Compound I-1], the EC50 was ≥ 750 nM under setting [1] and 500 to 750 nM under setting [2].

Take `O=C(CCl)Nc1ccc2c(c1)N(Cc1ccccc1)C(=O)c1cc(-c3ccc4[nH]ccc4c3)ccc1N2` [Compound I-2]: the EC50 is < 250 nM under setting [1] and < 250 nM under setting [2].

On to `C=CC(=O)Nc1ccc2c(c1)N(Cc1ccccc1)C(=O)c1cc(-c3ccc(N4CCNCC4)cc3)ccc1N2` [Compound I-3, N-(10-Benzyl-11-oxo-2-(4-(piperazin-1-yl)phenyl)-10,11-dihydro-5H-dibenzo[b,e][1,4]diazepin-8-yl)acrylamide], for which the EC50 is ≥ 750 nM under setting [1] and ≥ 750 nM under setting [2].

Take `O=C1c2cc(Br)ccc2Nc2ccc(F)cc2N1Cc1ccccc1` [I-a, 10-Benzyl-2-bromo-8-fluoro-5,10-dihydro-11H-dibenzo[b,e][1,4]diazepin-11-one]: the EC50 is, setting by setting: under setting [1], ≥ 750 nM; under setting [2], 250 to 500 nM.
